Source: US5854004A, “Process for screening substances capable of modulating a receptor-dependent cellular signal transmission path” (Boehringer Ingleheim GmbH, priority 1991, dated 1998)
“Also recorded” adds a separate entry of the source.

Assays:
[1] = tested on: cell line A20; assay: Luciferase induction in stable TRE-pretest cell line A20 (A549, pBHluc1.3); settings: A20
Description: In order to produce a stable (pre-)test cell line for substances which influence the expression of the luciferase gene by direct or receptor-mediated modulation of the IP3 /DAC-signal transduction pathway, A549 cells were simultaneously transfected with the plasmid pBHluc1.3 and the selection plasmid pRSVneo by electroporation as follows: after removal of the medium the cells were detached from the surface by means of a trypsin/PBS solution, suspended in medium and sedimented for 5 minutes at 250×g. […] 0.8 ml of cell suspension were combined with 20 μg of pBHluc1.3 and 2 μg of pRSVneo. Both plasmids had previously been linearised with BamHI.
(§1) 15-20 days after transfection, individual cell clones were transferred into 96-well microtitre plates and further cultivated. […] Approximately 40,000 cells in each clone were sown, in a procedure repeated 6 times, in 200 μl per well of a light-impervious 96-well microtitre plate coated with tissue culture (Microlite™, Dynatech Laboratories) and incubated overnight at 37° C. Three mixtures were treated with 10 ng TPA/ml and incubated for a further 8 hours. Then the medium was removed and the cells were washed twice with PBS.
(§2) The pretest cell line A20 was transfected, as described under a), by electroporation with the plasmid pAHyg-NK2, which had previously been linearised with BglII. From the day after transfection onwards, the cells were grown in selection medium, as used for the cell line A20 and additionally enriched with 150 μg/ml hygromycin B (Sigma). Individual clones were tested for inducibility of the luciferase activity as described under a).

[2] = target: human 5HT2-receptor (Homo sapiens, UniProt P28223); assay: Induction of pADneo2-C6-BGL (CRE) via 5-HT2-receptor in co-transfected COS-7 cells; format: cell-based; settings: 20 μM forskolin or 10 μ α-methylserotonin-maleate
Description: Induction was carried out with i) 20 μM forskolin (Sigma P8139), ii) 10 μα-methylserotonin-maleate (RBI M-110), and iii) 10 μα-methylserotonin-maleate and 10 μM ketanserin-tartrate (RBI S-006). […] It follows, from the above results, that, depending on 5-HT2 -receptors, only regulation elements which respond to IP3 /DAG (TRE), but not regulation elements which respond to cAMP (CRE) are selectively activated.

[3] = tested on: CHO C12-32; assay: Luciferase inducibility in CRE-pretest cell clone C12-32; format: cell-based, Chinese hamster; settings: 20 μM forskolin, 5 hours
Description: (This plasmid differs from the pADneo2-C6-BGL described in Example 1) in that the section containing the 6 CRE-elements is duplicated and the β-globin promotor is replaced by the TK-promotor (see Example 1 b)). In order to do this the SalI-HindIII-β-globin-promotor-fragment was replaced by a similarly cut fragment containing the TK-promotor (McKnight, 1980)).
The transfection and testing of the cell clones were carried out as in Example 7 a).

[4] = tested on: HeLa cells; assay: Induction of TRE-sensor-DNA (luciferase) in transiently transfected pretest cells, HeLa; settings: 10 ng TPA/ml or 20 μM forskolin, 18 h
Description: (§3) Approximately 1×10^7 cells per transfection were detached from the surface of the culture dish using trypsin and centrifuged for 5 minutes at 1200 rpm at ambient temperature (Heraeus Minifuge), washed once with 5 ml of serum-free medium, centrifuged for 5 minutes at 1200 rpm and suspended in 1 ml of serum-free medium. Then the cells were mixed with 250 μg/ml DEAE-dextrane, 5 μg plasmid DNA and 50 μg/ml chloroquin, incubated for 30 minutes at 37° C., washed once with medium containing no FCS and incubated overnight at 37° C. with 10 ml of fresh serum-containing medium. Then the medium was changed and after 4 hours the cells were induced, either with 10 ng TPA/ml medium or with 20 μM forskolin. […] The cells were lysed by the addition of 100 μl lysing buffer (1% Triton X-100, 25 mM glycylglycine pH 7.8, 15 mM MgSO4, 4 mM EDTA and 1 mM […]), the lysate was centrifuged for 5 minutes and the supernatant was transferred into a fresh test tube. […] The measuring time for light emission was 10 seconds.
(§4) The cell lines A549, HeLa and COS-7 were transiently transfected as described above by the addition of plasmid pBHluc1.3 and induced by the addition of TPA. Cells which were only transfected but not induced were used as a negative control.
(§5) The cell lines A549, HeLa and COS-7 were transiently transfected by the addition of plasmid pADneo(3TRE)BGluci and induced by the addition of TPA or forskolin. Once again, cells which were only transfected but not induced were used as a negative control.

[5] = tested on: A549 cells; assay: Induction of TRE-sensor-DNA (luciferase) in transiently transfected pretest cells, A549; settings: A549
Description: as §3, §4, §5
(§6) The cell lines COS-7 and A549 were transiently transfected by the addition of plasmid pADneo(3×TREd16)BGluci, pADneo(3×TREd21)BGluci, pADneo(3×TREd24)BGluci, pADneo(3×TREd34)BGluci, pADneo(6×TREd16)BGluci, pADneo(6×TREd21)BGluci, pADneo(6×TREd24)BGluci or pADneo(6×TREd34)BGluci and induced by the addition of TPA or forskolin.

[6] = target: T1, human neurokinin 2-receptor (Homo sapiens, UniProt P21452); assay: Luciferase activity in NK2-test cell line A20/NK2-122; settings: A20/NK2-122
T1 sequence (P21452 1-398): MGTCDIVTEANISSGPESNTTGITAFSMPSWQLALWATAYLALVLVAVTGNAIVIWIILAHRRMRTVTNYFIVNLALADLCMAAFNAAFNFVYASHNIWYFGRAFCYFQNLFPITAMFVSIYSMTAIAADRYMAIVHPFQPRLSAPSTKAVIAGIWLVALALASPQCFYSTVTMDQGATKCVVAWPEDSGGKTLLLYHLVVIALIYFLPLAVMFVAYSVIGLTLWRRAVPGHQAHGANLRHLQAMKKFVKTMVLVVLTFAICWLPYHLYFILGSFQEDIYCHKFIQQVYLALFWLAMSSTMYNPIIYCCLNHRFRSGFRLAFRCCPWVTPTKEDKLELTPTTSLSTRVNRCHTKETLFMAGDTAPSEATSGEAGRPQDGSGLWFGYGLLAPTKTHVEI
Description: as §1
This Example illustrates the preparation of a test cell line for the human neurokinin 2 (NK2)-receptor which is coupled to the phospholipase C-signal transduction pathway. This test cell line makes it possible, by measurement of the luciferase activity, to identify substances which modulate the intracellular IP3 /DAG concentrations, depending on the receptor.
as §2

[7] = tested on: A549 cells; settings: Voraberger et al., 1991; cited from earlier work
[8] = target: human dopamine D1-receptor (Homo sapiens, UniProt P21728); assay: Induction of pADneo2-C6-BGL (CRE) via dopamine-D1-receptor in co-transfected COS-7 cells; settings: COS-7; 20 μM forskolin or 1 μM apomorphine, 18 h
[9] = tested on: cell line CHO C6-13; assay: Luciferase expression in CRE-pretest cell line CHO C6-13
Description: The transfection by electroporation was carried out as follows: after removal of the medium the cells were detached from the surface by means of a trypsin/PBS solution, suspended in medium and pelleted for 5 minutes at 250×g. The cells were washed in HBS (10 mM HEPES pH 7.4, 150 mM NaCl) and pelleted by centrifuging. The cells were suspended in HBS in a density of 1×10^7 cells/ml. 0.8 ml of cell suspension were mixed with 20 μg of DNA of the plasmid pADneo2-C6-BGL linearised with ScaI and transferred into an electroporation dish. […] After the electroporation the cells were diluted in the medium mentioned above, 20,000 cells per 90 mm culture dish was sown and incubated overnight at 37° C.
Two batches of each were treated with 20 μM forskolin and incubated for a further 5 hours at 37° C. Then the medium was removed from all the cells and the cells were washed with PBS.
Cells of the cell line CHO C6-13 were treated for 3 hours with various substances which alter the intracellular concentration of cAMP or IP3 /DAG or simulate a change in concentration, and also treated with receptor-specific agonists which influence the above-mentioned signal transduction mechanisms.

[10] = tested on: COS-7 cells; assay: Induction of TRE-sensor-DNA (luciferase) in transiently transfected pretest cells, COS-7; settings: COS-7
Description: as §3, §4, §5, §6

[11] = 10 ng TPA/ml or 20 μM forskolin, 18 h

Chain of human dopamine D1-receptor (P21728 whole entry): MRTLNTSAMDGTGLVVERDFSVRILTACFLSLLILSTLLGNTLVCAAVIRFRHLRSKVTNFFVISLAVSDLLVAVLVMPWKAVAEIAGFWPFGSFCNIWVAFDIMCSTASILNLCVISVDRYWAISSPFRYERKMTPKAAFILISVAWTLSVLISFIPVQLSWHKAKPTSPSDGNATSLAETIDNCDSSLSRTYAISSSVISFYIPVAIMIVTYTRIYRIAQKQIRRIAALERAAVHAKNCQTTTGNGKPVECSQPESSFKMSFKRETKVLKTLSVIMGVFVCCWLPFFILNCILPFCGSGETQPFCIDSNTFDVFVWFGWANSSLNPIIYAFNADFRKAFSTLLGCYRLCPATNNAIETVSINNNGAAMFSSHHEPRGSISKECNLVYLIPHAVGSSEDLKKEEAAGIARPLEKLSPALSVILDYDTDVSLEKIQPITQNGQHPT
Chain of human 5HT2-receptor (P28223 whole entry): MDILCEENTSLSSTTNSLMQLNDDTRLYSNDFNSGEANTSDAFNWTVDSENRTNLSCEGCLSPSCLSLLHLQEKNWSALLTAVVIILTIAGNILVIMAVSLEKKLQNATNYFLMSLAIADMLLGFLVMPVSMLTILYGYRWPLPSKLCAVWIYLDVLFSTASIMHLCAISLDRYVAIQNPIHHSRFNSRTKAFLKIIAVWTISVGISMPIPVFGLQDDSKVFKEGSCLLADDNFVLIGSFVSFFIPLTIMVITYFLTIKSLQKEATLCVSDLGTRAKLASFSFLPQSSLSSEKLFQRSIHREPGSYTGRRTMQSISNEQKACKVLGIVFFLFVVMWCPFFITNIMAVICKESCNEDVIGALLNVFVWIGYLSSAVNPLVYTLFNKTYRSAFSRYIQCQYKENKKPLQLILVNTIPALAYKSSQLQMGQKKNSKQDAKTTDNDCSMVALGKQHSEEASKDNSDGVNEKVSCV

Q: What does the source list for `C=C[C@@]1(C)CC(=O)[C@]2(O)[C@@]3(C)[C@@H](O)CCC(C)(C)[C@@H]3[C@H](O)[C@H](OC(C)=O)[C@@]2(C)O1` [forskolin]?
A: induction of luciferase activity by forskolin [1]: did not result in any induction of luciferase activity; induction of luciferase expression (CRE) [2]: induced by forskolin; inducibility of luciferase by forskolin, clone C12-32 [3]: very high inducibility; induction of pADneo(3TRE)BGluci [4]: not by forskolin; induction of pBHluc1.3 by TPA or forskolin [4]: not by forskolin; induction of pADneo(3TRE)BGluci [5, 11]: not by forskolin; induction of pADneo(nTREdx)BGluci by forskolin ([5]; 20 μM forskolin): none of the constructions can be induced with forskolin; induction of luciferase activity by forskolin [6]: did not result in any induction of luciferase activity; induction of 1.3 kb ICAM-1 fragment / pBHluc1.3 [7]: cannot be activated by forskolin; also recorded: cannot be induced by forskolin; induction of luciferase expression (CRE) [8]: induced by forskolin and by apomorphine; inducibility of luciferase by forskolin, clone C6-13 ([9]; 20 μM forskolin, 5 hours): very high inducibility; change in luciferase expression/activity ([9]; 3 hours treatment, FIG. 33): increased; luciferase induction at concentrations higher than 20 μM (attributed to toxic effects or excessively high cAMP level) ([9]; > 20 μM forskolin): drop in luciferase induction at even higher concentrations; EC100 ([9]; Cricetulus griseus, read-out: concentration of maximum induction of the luciferase reporter gene): 20 µM; time up to which induction does not change ([9]; after forskolin stimulation): 4 h; time after stimulation at which increased luciferase activity can be detected ([9]; forskolin, FIG. 35A): 60 min; time to total induction of luciferase expression ([9]; forskolin, FIG. 35A): 2.5 h; dependency of ED50 levels on duration of treatment ([9]; forskolin, FIG. 35B): virtually unaffected; induction of pADneo(3TRE)BGluci [10, 11]: not by forskolin; induction of pBHluc1.3 by TPA or forskolin [10, 11]: not by forskolin; induction of pADneo(nTREdx)BGluci by forskolin ([10]; 20 μM forskolin): none of the constructions can be induced with forskolin
